Counter-ions that a name gives are not always drawn. Like-named read-outs stand apart in the source and are kept apart here.
Legend:
[1] = molecular target: RelA (Homo sapiens, UniProt Q04206); experiment: DSE-FRET RelA–DNA binding inhibition; type: biochemical; design: Kinetic assay RelA Inhibition % ΔRFU(60 min-0 min) / RelA HTS % Inhibition / RelA Retest % Inhibition Run1 / RelA Retest % Inhibition Run2 / RelA Retest % Inhibition Avg. / Kinetic assay RelA % Inhibition ΔRFU(60 min-0 min): dose or concentration left out as unconfirmed; conditions: for Hit Judgement of: RelA: 1 = judged hit after retest
[2] = molecular target: T1, p52 (Homo sapiens, UniProt Q00653); experiment: DSE-FRET p52–DNA binding inhibition; type: biochemical; design: p52 Retest % Inhibition Run2 / p52 Retest % Inhibition Avg. / Kinetic assay p52 Inhibition % ΔRFU(60 min-0 min) / p52 HTS % Inhibition / p52 Retest % Inhibition Run1: dose or concentration left out as unconfirmed; conditions: for Hit Judgement of: p52: 1 = judged hit after retest
T1 sequence (Q00653 1-454 limits assumed): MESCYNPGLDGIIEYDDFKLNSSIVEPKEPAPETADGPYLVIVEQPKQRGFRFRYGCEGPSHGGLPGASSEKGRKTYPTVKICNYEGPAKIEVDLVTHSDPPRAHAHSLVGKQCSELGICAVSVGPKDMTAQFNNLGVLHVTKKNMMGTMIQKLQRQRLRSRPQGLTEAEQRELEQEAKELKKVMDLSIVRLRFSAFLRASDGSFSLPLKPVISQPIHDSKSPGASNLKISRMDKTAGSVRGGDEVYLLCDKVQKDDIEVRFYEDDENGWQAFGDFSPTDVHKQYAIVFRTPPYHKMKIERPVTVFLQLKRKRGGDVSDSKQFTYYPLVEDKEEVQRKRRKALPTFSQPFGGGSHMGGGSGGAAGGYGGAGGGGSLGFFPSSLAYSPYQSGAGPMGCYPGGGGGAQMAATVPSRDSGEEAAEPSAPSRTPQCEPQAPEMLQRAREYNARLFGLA

[3] = HTS, known drugs, 10 µM, read-out: RelA HTS % Inhibition @ 10 µM
[4] = kinetic assay, 60 min-0 min, 10 µM, read-out: Kinetic assay @ 10 µM RelA % Inhibition ΔRFU(60 min-0 min)
[5] = retest, Run1, 10 µM, read-out: RelA Retest % Inhibition @ 10 µM Run1
[6] = retest, Run2, 10 µM, read-out: RelA Retest % Inhibition @ 10 µM Run2
[7] = retest, average of Run1 and Run2, 10 µM, read-out: RelA Retest % Inhibition @ 10 µM Avg.
[8] = HTS, known drugs, 10 µM, read-out: p52 HTS % Inhibition @ 10 µM
[9] = kinetic assay, 60 min-0 min, 10 µM, read-out: Kinetic assay @ 10 µM p52 % Inhibition ΔRFU(60 min-0 min)
[10] = retest, Run1, 10 µM, read-out: p52 Retest % Inhibition @ 10 µM Run1
[11] = retest, Run2, 10 µM, read-out: p52 Retest % Inhibition @ 10 µM Run2
[12] = retest, average of Run1 and Run2, 10 µM, read-out: p52 Retest % Inhibition @ 10 µM Avg.
[13] = HTS, 5 µg/mL, NPDepo hits, read-out: RelA HTS % Inhibition @ 5 µg/mL
[14] = Retest Run1, 5 µg/mL, read-out: RelA Retest % Inhibition @ 5 µg/mL Run1
[15] = Retest Run2, 5 µg/mL, read-out: RelA Retest % Inhibition @ 5 µg/mL Run2
[16] = Retest average of Run1 and Run2, 5 µg/mL, read-out: RelA Retest % Inhibition @ 5 µg/mL Avg.
[17] = kinetic assay, 5 µg/mL, ΔRFU 60 min-0 min, read-out: Kinetic assay @ 5 µg/mL RelA Inhibition % ΔRFU(60 min-0 min)
[18] = Retest average of Run1 and Run2
[19] = kinetic assay, ΔRFU 60 min-0 min

RelA, sequence (Q04206 19-306 limits assumed): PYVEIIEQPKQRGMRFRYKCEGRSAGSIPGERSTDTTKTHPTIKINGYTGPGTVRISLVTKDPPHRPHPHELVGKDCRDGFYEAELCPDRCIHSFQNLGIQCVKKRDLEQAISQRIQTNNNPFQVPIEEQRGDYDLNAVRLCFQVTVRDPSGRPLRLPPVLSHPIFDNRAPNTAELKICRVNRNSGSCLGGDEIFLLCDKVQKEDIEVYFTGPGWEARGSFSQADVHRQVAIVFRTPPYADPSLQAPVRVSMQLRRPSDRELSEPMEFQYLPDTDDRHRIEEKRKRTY

| inhibition at 10 µM [1, 3] [%] | inhibition at 10 µM [1, 4] [%] | inhibition at 10 µM [1, 5] [%] | inhibition at 10 µM [1, 6] [%] | inhibition at 10 µM [1, 7] [%] | inhibition at 10 µM [2, 8] [%] | inhibition at 10 µM [2, 9] [%] | inhibition at 10 µM [2, 10] [%] | inhibition at 10 µM [2, 11] [%] | inhibition at 10 µM [2, 12] [%] | SMILES | also measured |
| --- | --- | --- | --- | --- | --- | --- | --- | --- | --- | --- | --- |
| 101 | -27 | 88.6 | 99.1 | 93.9 | 103 | -31 | 88 | 99.8 | 93.9 | Cc1[nH]c(/C=C2\C(=O)Nc3ccc(S(=O)(=O)Cc4c(Cl)cccc4Cl)cc32)c(C)c1C(=O)N1CCC[C@@H]1CN1CCCC1 [PHA 665752] |  |
| 242 | -4.64 | 226 | 246 | 236 | 241 | -1.23 | 207 | 231 | 219 | CC(C)(CO)[C@@H](O)C(=O)NCCCO [DEXPANTHENOL] |  |

Further lines, the compound ahead of its results:

| SMILES | inhibition at 10 µM [1, 3] [%] | inhibition at 10 µM [1, 4] [%] | inhibition at 10 µM [1, 5] [%] | inhibition at 10 µM [1, 6] [%] | inhibition at 10 µM [1, 7] [%] | inhibition at 10 µM [2, 8] [%] | inhibition at 10 µM [2, 9] [%] | inhibition at 10 µM [2, 10] [%] | inhibition at 10 µM [2, 11] [%] | inhibition at 10 µM [2, 12] [%] | also measured |
| --- | --- | --- | --- | --- | --- | --- | --- | --- | --- | --- | --- |
| COc1cccc2c1C(=O)c1c(O)c3c(c(O)c1C2=O)C[C@@](O)(C(=O)CO)C[C@@H]3O[C@H]1C[C@H](N)[C@@H](O)[C@H](C)O1 [EPIRUBICIN HYDROCHLORIDE] | 82.2 | -11 | 77.3 | 88.4 | 82.9 | 88.4 | -11 | 77.2 | 88.8 | 83 |  |
| O=C1NC(=O)c2c1c1c3ccccc3[nH]c1c1[nH]c3ccccc3c21 [Arcyriaflavin A] |  |  |  |  |  |  |  |  |  |  | Kinetic assay RelA % Inhibition ΔRFU(60 min-0 min) ([1]; kinetic assay, 60 min-0 min): -3.51%; Kinetic assay p52 % Inhibition ΔRFU(60 min-0 min) ([2]; kinetic assay, 60 min-0 min): -3.54% |
| O=C1NC(=O)c2c1c1c3ccccc3n3c1c1c2c2ccccc2n1C1CCC3O1 [SB 218078] |  |  |  |  |  |  |  |  |  |  | Kinetic assay RelA % Inhibition ΔRFU(60 min-0 min) ([1]; kinetic assay, 60 min-0 min): 13%; Kinetic assay p52 % Inhibition ΔRFU(60 min-0 min) ([2]; kinetic assay, 60 min-0 min): 5% |
| Cl[C@H]1[C@H](Cl)[C@@H](Cl)[C@@H](Cl)[C@H](Cl)[C@H]1Cl [LINDANE] | 29.3 | -1.86 | 6.1 | 5.6 | 5.9 | 31.4 | -1.69 | 5.5 | 6.4 | 5.9 |  |
| O=C(O)c1cc(O)c2c(c1)[C@@H]([C@H]1c3cc(C(=O)O)cc(O)c3C(=O)c3c(O[C@@H]4O[C@H](CO)[C@@H](O)[C@H](O)[C@H]4O)cccc31)c1cccc(O[C@@H]3O[C@H](CO)[C@@H](O)[C@H](O)[C@H]3O)c1C2=O [Sennoside B] |  |  |  |  |  |  |  |  |  |  | Hit Judgement of: RelA [1]: 1; inhibition at 5 µg/mL [1, 13]: 87.4%; inhibition at 5 µg/mL [1, 14]: 74.5%; inhibition at 5 µg/mL [1, 15]: 85.1%; inhibition at 5 µg/mL [1, 16]: 79.8%; inhibition at 5 µg/mL [1, 17]: 73%; Hit Judgement of: p52 [2]: 1 |
| CCN(CC)CCCC(C)Nc1c2ccc(Cl)cc2nc2ccc(OC)cc12 (stereo not shown) [QUINACRINE HYDROCHLORIDE] | 56.7 |  | 60.6 | 66.3 | 63.5 | 70.9 |  | 60.7 | 69.7 | 65.2 | Kinetic assay RelA % Inhibition ΔRFU(60 min-0 min) ([1]; kinetic assay, 60 min-0 min): -18%; Kinetic assay p52 % Inhibition ΔRFU(60 min-0 min) ([2]; kinetic assay, 60 min-0 min): -16% |
| CC[C@@]1(O)C(=O)OCc2c1cc1n(c2=O)Cc2cc3c(CN(C)C)c(O)ccc3nc2-1 [Topotecan] | 91.4 | -4.46 | 99.3 | 109 | 104 | 74.5 | -3.67 | 94.6 | 104 | 99.1 |  |
| OCCN(CCO)c1nc(N2CCCCC2)c2nc(N(CCO)CCO)nc(N3CCCCC3)c2n1 [DIPYRIDAMOLE] |  |  |  |  |  |  |  |  |  |  | Kinetic assay RelA % Inhibition ΔRFU(60 min-0 min) ([1]; kinetic assay, 60 min-0 min): -1.49%; Kinetic assay p52 % Inhibition ΔRFU(60 min-0 min) ([2]; kinetic assay, 60 min-0 min): -1.17% |
| O=C(O)c1cc(O)c2c(c1)[C@H]([C@H]1c3cc(C(=O)O)cc(O)c3C(=O)c3c(O[C@@H]4O[C@H](CO)[C@@H](O)[C@H](O)[C@H]4O)cccc31)c1cccc(O[C@@H]3O[C@H](CO)[C@@H](O)[C@H](O)[C@H]3O)c1C2=O [Sennoside A] |  |  |  |  |  |  |  |  |  |  | Hit Judgement of: RelA [1]: 1; inhibition at 5 µg/mL [1, 13]: 85.4%; inhibition at 5 µg/mL [1, 14]: 88.7%; inhibition at 5 µg/mL [1, 15]: 100%; inhibition at 5 µg/mL [1, 16]: 94.6%; inhibition at 5 µg/mL [1, 17]: 31%; Hit Judgement of: p52 [2]: 1 |
| Cc1cc(-c2ccc(/N=N/c3c(S(=O)(=O)O)cc4cc(S(=O)(=O)O)cc(N)c4c3O)c(C)c2)ccc1/N=N/c1c(S(=O)(=O)O)cc2cc(S(=O)(=O)O)cc(N)c2c1O [Trypan blue] |  |  |  |  |  |  |  |  |  |  | Hit Judgement of: RelA [1]: 1; inhibition at 5 µg/mL [1, 13]: 54.8%; inhibition at 5 µg/mL [1, 14]: 62%; inhibition at 5 µg/mL [1, 15]: 69%; inhibition at 5 µg/mL [1, 16]: 65.5%; inhibition at 5 µg/mL [1, 17]: 26%; Hit Judgement of: p52 [2]: 1; inhibition at 5 µg/mL ([2]; HTS, 5 µg/mL, NPDepo hits, read-out: p52 HTS % Inhibition @ 5 µg/mL): 2.8%; inhibition at 5 µg/mL ([2]; Retest Run1, 5 µg/mL, read-out: p52 Retest % Inhibition @ 5 µg/mL Run1): 15.1%; inhibition at 5 µg/mL ([2]; Retest Run2, 5 µg/mL, read-out: p52 Retest % Inhibition @ 5 µg/mL Run2): 16.4%; inhibition at 5 µg/mL ([2]; Retest average of Run1 and Run2, 5 µg/mL, read-out: p52 Retest % Inhibition @ 5 µg/mL Avg.): 15.8%; inhibition at 5 µg/mL ([2]; kinetic assay, 5 µg/mL, ΔRFU 60 min-0 min, read-out: Kinetic assay @ 5 µg/mL p52 Inhibition % ΔRFU(60 min-0 min)): 7% |
| O=c1c(=Cc2ccc(-c3ccccc3F)o2)sc2nc3sc4c(c3c(=O)n12)CCCC4 |  |  |  |  |  |  |  |  |  |  | RelA HTS % Inhibition ([1]; HTS, NPDepo hits): 33.6%; RelA Retest % Inhibition Run1 ([1]; Retest Run1): 26.4%; RelA Retest % Inhibition Run2 ([1]; Retest Run2): 32.2%; RelA Retest % Inhibition Avg. [1, 18]: 29.3%; Kinetic assay RelA Inhibition % ΔRFU(60 min-0 min) [1, 19]: 0.774%; p52 HTS % Inhibition ([2]; HTS, NPDepo hits): 20.7%; p52 Retest % Inhibition Run1 ([2]; Retest Run1): 25.8%; p52 Retest % Inhibition Run2 ([2]; Retest Run2): 30.7%; p52 Retest % Inhibition Avg. [2, 18]: 28.2%; Kinetic assay p52 Inhibition % ΔRFU(60 min-0 min) [2, 19]: -0.236% |
| Cn1cc(C2=C(c3ccc(Cl)cc3Cl)C(=O)NC2=O)c2ccccc21 [SB 216763] | 146 | -12 | 73.3 | 82.1 | 77.7 | 18.6 | -10 | 64.6 | 76.1 | 70.3 |  |

— paper PMC7734590, “Identification of a Selective RelA Inhibitor Based on DSE-FRET Screening Methods” (International Journal of Molecular Sciences, 2020)
